Laboratory results reported in paper PMC7395068, “The evolution of strategies to minimise the risk of human drug-induced liver injury (DILI) in drug discovery and development” (Archives of Toxicology, 2020).
Read-outs that look alike come from different tables or passages of the source.

Key:
[1] = tested on: isolated mouse liver mitochondria; details: In vitro Assay; ref Porceddu 2012; cited from earlier work
HepG2 cells [2] = details: cited from earlier work
HepaRG cells = details: HepaRG cells, BMCs in relation to 10 × human Cmax.tot; ref National Toxicology Program; cited from earlier work
[3] = tested on: HepG2 C3A spheroid, BSEP, Glu/Gal in HepG2 cells, bioactivation; details: cited from earlier work
PHH liver spheroid = tested on: PHH liver spheroid; set-up: method as in Foster et al. 2019; details: liver-chip of comparable sensitivity, ref Foster et al. 2019; cited from earlier work
hLiMTs [4] = assay: Combined HCI (HCS) and cellular ATP 3D assay in hLiMTs; details: for AC50 / minimal effective concentration: Homo sapiens
[5] = plasma free fraction; cited from earlier work
hLiMTs [6] = details: cited from earlier work
[7] = tested on: THLE-Null and THLE-3A4 cells; details: In vitro Assay; ref Gustafsson 2014; cited from earlier work
[8] = cited from earlier work
PHH spheroids = details: In vitro Assay; ref Vorrink 2018; cited from earlier work
[9] = Plasma free fraction (fu) and unbound Cmax (Cmax,u); assay type: in vitro ADME, human; details: unbound plasma Cmax
[10] = cited from earlier work; remark: listed apart in the source
rBsep = details: In vitro Assay; ref Dawson 2012; cited from earlier work
HepG2 cells [11] = details: cited from earlier work; remark: listed apart in the source
PHH [12] = details: cited from earlier work
HepG2 cells [13] = details: cited from earlier work; remark: listed apart in the source
HepaRG spheroids = assay: Combined HCI (HCS) and cellular ATP 3D assay in HepaRG spheroids; details: for AC50 / minimal effective concentration: Homo sapiens
PHH [14] = details: In vitro Assay; ref Albrecht 2019; cited from earlier work
HepG2 = tested on: HepG2; set-up: method as in Albrecht 2019; details: In vitro Assay; ref Albrecht 2019; cited from earlier work
[15] = cited from earlier work; remark: listed apart in the source
[16] = Microtissue model structural based (HCI), combined HCS and ATP, MEC < 25 × Cmax.tot cut-off
[17] = In vitro Assay, ref Proctor 2017

- hLiMTs <25x Avg Cmax ATP (hLiMTs [4]; hLiMTs, ATP endpoint, cut-off <25x Avg Cmax): +ve
- hLiMTs <100x Avg Cmaxu ATP (hLiMTs [4]; hLiMTs, ATP endpoint, cut-off <100x Avg Cmaxu): +ve (<100x Avg Cmaxu)
- hLiMTs <25x Avg Cmax HCS (hLiMTs [4]; hLiMTs, HCS endpoints, cut-off <25x Avg Cmax): +ve
- hLiMTs <100x Avg Cmaxu HCS (hLiMTs [4]; hLiMTs, HCS endpoints, cut-off <100x Avg Cmaxu): +ve (<100x Avg Cmaxu)
- hLiMTs <25x Avg Cmax All (hLiMTs [4]; hLiMTs, all endpoints (ATP and HCS), cut-off <25x Avg Cmax): +ve
- hLiMTs Cmax max All (hLiMTs [4]; hLiMTs, all endpoints, Cmax max used): +ve
- hLiMTs Cmax min All (hLiMTs [4]; hLiMTs, all endpoints, Cmax min used): +ve
- hLiMTs <10 uM All (hLiMTs [4]; hLiMTs, all endpoints, cut-off <10 uM): -ve
- hLiMTs <100x Avg Cmaxu All (hLiMTs [4]; hLiMTs, all endpoints, cut-off <100x Avg Cmaxu): +ve (<100x Avg Cmaxu)
- Human plasma Cmax,u [9]: 139.840 µM
- HepaRG <25x Avg Cmax ATP (HepaRG spheroids; HepaRG, ATP endpoint, cut-off <25x Avg Cmax): +ve
- HepaRG <100x Avg Cmaxu ATP (HepaRG spheroids; HepaRG, ATP endpoint, cut-off <100x Avg Cmaxu): +ve (<100x Avg Cmaxu)
- HepaRG <25x Avg Cmax HCS (HepaRG spheroids; HepaRG, HCS endpoints, cut-off <25x Avg Cmax): +ve
- HepaRG <100x Avg Cmaxu HCS (HepaRG spheroids; HepaRG, HCS endpoints, cut-off <100x Avg Cmaxu): +ve (<100x Avg Cmaxu)
- HepaRG <25x Avg Cmax All (HepaRG spheroids; HepaRG, all endpoints (ATP and HCS), cut-off <25x Avg Cmax): +ve
- HepaRG Cmax max All (HepaRG spheroids; HepaRG, all endpoints, Cmax max used): +ve
- HepaRG Cmax min All (HepaRG spheroids; HepaRG, all endpoints, Cmax min used): +ve
- HepaRG <10 uM All (HepaRG spheroids; HepaRG, all endpoints, cut-off <10 uM): -ve
- HepaRG <100x Avg Cmaxu All (HepaRG spheroids; HepaRG, all endpoints, cut-off <100x Avg Cmaxu): +ve (<100x Avg Cmaxu)
Compound: CC(=O)Nc1ccc(O)cc1 [acetaminophen]
- in vitro data EC2<=1x Cmax [1]: +VE
- in vitro data EC20<=2uM [1]: -VE
- Structural based (HCI) (HepG2 cells [2]; In vitro Assay, ref Persson 2013): -VE
- DILI in vitro assay prediction, Persson (2013) (HepG2 cells [2]; Structural based (HCI), HepG2, ref Persson et al. 2013): -VE
- DILI identification by high-throughput transcriptomics (HepaRG cells): identified
- Bayesian Machine Learning DILI prediction, Williams (2019) ([3]; Bayesian modeling, ref Williams et al. 2019): +VE
- Bayesian Machine Learning ([3]; In vitro Assay, ref Williams 2019): +VE
- detection in 3D microtissues (PHH liver spheroid): detected
- AC50 (hLiMTs [4]; read-out: ATP endpoint AC50): 1240 µM
- minimal effective concentration (hLiMTs [4]; read-out: ATP endpoint MEC): 292 µM
- AC50 (hLiMTs [4]; read-out: HCS endpoint AC50): 4340 µM
- minimal effective concentration (hLiMTs [4]; read-out: HCS endpoint MEC): 456 µM
- DILI prediction hLiMTs (HCS-MEC) (hLiMTs [4]; [16]): +VE (MEC < 25 × Cmax.tot cut-off)
- fu [5]: 0.920
- hLiMTs ATP <100uM (hLiMTs [6]; [17]): -VE
- hLiMTs/100uM, Proctor (2017) (hLiMTs [6]; hLiMTs, ATP, IC50 threshold 100 µM, ref Proctor et al. 2017): -VE
- THLE-Null [7]: -VE
- Assigned DILI category ([8]; Chen et al. 2016 or literature alignment, ref Chen et al. 2016): 3
- In vivo DILI ([8]; […]): +VE
- In vivo DILI ([8]; ref Albrecht 2019): +VE
- In vivo DILI ([8]; ref Dawson 2012): +VE
- In vivo DILI ([8]; ref Garside 2014): +VE
- In vivo DILI ([8]; ref Gustafsson 2014): +VE
- In vivo DILI ([8]; ref O'Brien 2006): +VE
- In vivo DILI ([8]; ref Persson 2013): +VE
- In vivo DILI ([8]; ref Porceddu 2012): +VE
- In vivo DILI ([8]; ref Proctor 2017): +VE
- In vivo DILI ([8]; ref Schadt 2015): +VE
- In vivo DILI ([8]; ref Tolosa 2012): +VE
- In vivo DILI ([8]; ref Vorrink 2018): +VE
- In vivo DILI ([8]; ref Williams 2019): +VE
- In vivo DILI ([8]; ref Xu 2008): +VE
- hLiMTs ATP <20 x Cmax (PHH spheroids): +VE (IC20 < 20 × Cmax.tot cut-off)
- DILI severity category (Chen et al. [2016]) ([10]; LTKB DILIrank category, ref Chen et al. 2016): Most
- DILI severity category ([10]; human DILI severity, ref Chen et al.): Most
- DILI +VE (5-8), DILI -VE (-4) ([10]; ref Chen 2016): +VE
- DILI severity category ([10]; ref Chen 2016): vMost-DILI-Concern
- Inhibition of rBsep cutoff<1& cmax u>.2 (rBsep): -VE
- Inhibition of rBsep cutoff<3 (rBsep): -VE
- Structural based (HCI) (HepG2 cells [11]; In vitro Assay, ref Tolosa 2012): +VE
- DILI in vitro assay prediction, Tolosa (2012) (HepG2 cells [11]; Structural based (HCI), HepG2, ref Tolosa et al. 2012): +VE
- PHH/100uM, Proctor (2017) (PHH [12]; 2D PHH, ATP, IC50 threshold 100 µM, ref Proctor et al. 2017): -VE
- PHH ATP <100uM (PHH [12]; [17]): +VE (IC50 threshold of 100 µM)
- Structural based (HCI) (HepG2 cells [13]; In vitro Assay, ref O'Brien 2006): +VE
- DILI in vitro assay prediction, O'Brien (2006) (HepG2 cells [13]; Structural based (HCI), HepG2, ref O'Brien et al. 2006): +VE (lowest HCI endpoint IC50 (or in the absence of dose–response < 100 µM) < 30 × total human plasma exposure levels (Cmax.tot))
- AC50 (HepaRG spheroids; HepaRG, read-out: ATP endpoint AC50): 760 µM
- minimal effective concentration (HepaRG spheroids; HepaRG, read-out: ATP endpoint MEC): 187 µM
- AC50 (HepaRG spheroids; HepaRG, read-out: HCS endpoint AC50): 3100 µM
- minimal effective concentration (HepaRG spheroids; HepaRG, read-out: HCS endpoint MEC): 656 µM
- DILI prediction HepaRG spheroids (HCS-MEC) (HepaRG spheroids; [16]): +VE (MEC < 25 × Cmax.tot cut-off)
- Cytotoxicity PHH 48 hrs (PHH [14]): +VE
- Cytotoxicity HepG2 48 hrs (HepG2): +VE
- Cmax ([15]; read-out: Cmax.tot, value used by Albrecht, ref Albrecht et al. 2019): 109 µM
- Cmax ([15]; read-out: Human plasma Cmax, total plasma Cmax.tot, median of 9 literature references): 152 µM
